Results taken from patent US10189841B2, “Purinones as ubiquitin-specific protease 1 inhibitors” (Forma Therapeutics, Inc., priority 2015, dated 2019).

Target: USP1 (construct USP1 (I-785, GG670, 671AA)/UAF1 (I-677)-Flag) (Homo sapiens (Human), UniProt O94782, G670A/G671A)
Experiment: Ubiquitin-Rhodamine 110 assay for USP1 activity
Type: biochemical
Details: USP1/UAF1 25 pM, Ub-Rh110 25 nM, 30 min preincubation
Method in brief: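 Two formats with the USP1/UAF1 complex and 25 nM ubiquitin-rhodamine 110 in pH 8.0 Tris buffer with calcium, glutathione and detergent. Single-point screening used 10 µM, 100 pM enzyme and 45 min. Inhibition was set against no-enzyme and DMSO wells.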

USP1 (construct USP1 (I-785, GG670, 671AA)/UAF1 (I-677)-Flag), sequence (O94782 whole entry G670A/G671A): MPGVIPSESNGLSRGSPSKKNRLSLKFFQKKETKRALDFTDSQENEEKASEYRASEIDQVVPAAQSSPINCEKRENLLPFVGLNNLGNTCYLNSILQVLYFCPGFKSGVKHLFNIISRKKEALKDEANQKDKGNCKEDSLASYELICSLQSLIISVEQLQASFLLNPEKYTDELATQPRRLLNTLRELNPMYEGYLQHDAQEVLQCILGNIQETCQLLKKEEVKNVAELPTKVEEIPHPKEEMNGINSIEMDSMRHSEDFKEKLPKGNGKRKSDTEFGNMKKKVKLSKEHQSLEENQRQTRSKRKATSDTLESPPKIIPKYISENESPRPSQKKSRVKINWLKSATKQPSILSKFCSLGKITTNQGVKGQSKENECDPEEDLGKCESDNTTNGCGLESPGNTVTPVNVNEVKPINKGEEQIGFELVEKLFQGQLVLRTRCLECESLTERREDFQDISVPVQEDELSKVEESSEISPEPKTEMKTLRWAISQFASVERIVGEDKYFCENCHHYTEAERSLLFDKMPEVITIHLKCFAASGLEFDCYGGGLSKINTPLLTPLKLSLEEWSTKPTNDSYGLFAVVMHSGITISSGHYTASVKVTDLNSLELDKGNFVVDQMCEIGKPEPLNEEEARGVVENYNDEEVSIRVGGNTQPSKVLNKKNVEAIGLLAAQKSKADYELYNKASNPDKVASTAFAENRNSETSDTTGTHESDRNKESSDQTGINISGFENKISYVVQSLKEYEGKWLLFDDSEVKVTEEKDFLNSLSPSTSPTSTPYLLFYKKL
USP1 (construct USP1 (I-785, GG670, 671AA)/UAF1 (I-677)-Flag), sequence (Q8TAF3 whole entry partner): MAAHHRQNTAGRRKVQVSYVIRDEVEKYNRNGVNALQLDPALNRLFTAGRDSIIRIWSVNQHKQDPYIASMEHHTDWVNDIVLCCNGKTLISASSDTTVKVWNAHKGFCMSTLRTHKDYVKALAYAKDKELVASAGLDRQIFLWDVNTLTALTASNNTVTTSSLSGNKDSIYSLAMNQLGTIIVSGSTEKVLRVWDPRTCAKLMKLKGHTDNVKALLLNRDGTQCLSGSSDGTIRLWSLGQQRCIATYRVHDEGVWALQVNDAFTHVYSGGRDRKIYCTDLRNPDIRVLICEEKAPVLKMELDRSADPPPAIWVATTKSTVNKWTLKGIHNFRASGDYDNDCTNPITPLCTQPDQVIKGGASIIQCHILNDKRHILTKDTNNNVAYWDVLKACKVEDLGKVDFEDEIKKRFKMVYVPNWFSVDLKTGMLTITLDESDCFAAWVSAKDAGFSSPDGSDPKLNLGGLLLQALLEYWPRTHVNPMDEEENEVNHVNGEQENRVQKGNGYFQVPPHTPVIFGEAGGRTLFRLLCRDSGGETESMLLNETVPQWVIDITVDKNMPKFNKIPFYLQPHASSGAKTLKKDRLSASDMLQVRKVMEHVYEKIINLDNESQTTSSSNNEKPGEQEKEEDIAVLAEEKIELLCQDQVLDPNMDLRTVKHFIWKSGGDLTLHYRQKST

SMILES | IC50 [µM]
Cn1cc(C(F)(F)F)nc1-c1ccc(Cn2c(=O)n(C)c3cnc(-c4cccnc4N4CC(F)(F)C4)nc32)cc1 [Compound I-135, 2-(2-(3,3-difluoroazetidin-1-yl)pyridin-3-yl)-7-methyl-9-(4-(1-methyl-4-(trifluoromethyl)-1H-imidazol-2-yl)benzyl)-7,9-dihydro-8H-purin-8-one] | 0.05 to 0.2
Cn1cc(C(F)(F)F)nc1-c1ccc(Cn2c(=O)n(C)c3cnc(-c4cccnc4N4CC(C(F)(F)F)C4)nc32)cc1 [Compound I-136, 7-methyl-9-(4-(1-methyl-4-(trifluoromethyl)-1H-imidazol-2-yl)benzyl)-2-(2-(3-(trifluoromethyl)azetidin-1-yl)pyridin-3-yl)-7,9-dihydro-8H-purin-8-one] | 0.05 to 0.2
Cn1cc(C(F)(F)F)nc1-c1ccc(Cn2c(=O)n(C)c3cnc(-c4cccnc4OC4CC4)nc32)cc1 [Compound I-137, 2-(2-cyclopropoxypyridin-3-yl)-7-methyl-9-(4-(1-methyl-4-(trifluoromethyl)-1H-imidazol-2-yl)benzyl)-7,9-dihydro-8H-purin-8-one] | < 0.05
CC(C)c1ccccc1-c1ncc2[nH]c(=O)n(Cc3ccc(-c4nc(C(F)(F)F)cn4C)cc3)c2n1 [Compound I-138, 2-(2-Isopropylphenyl)-9-(4-(1-methyl-4-(trifluoromethyl)-1H-imidazol-2-yl)benzyl)-7,9-dihydro-8H-purin-8-one] | < 0.05
CC(C)c1ccccc1-c1ncc2[nH]c(=O)n(Cc3ccc(-n4ccnn4)cc3)c2n1 [Compound I-139, 9-(4-(1H-1,2,3-triazol-1-yl)benzyl)-2-(2-isopropylphenyl)-7,9-dihydro-8H-purin-8-one] | 0.05 to 0.2
CC(C)c1ccccc1-c1ncc2[nH]c(=O)n(Cc3ccc(-n4nccn4)cc3)c2n1 [Compound I-140, 9-(4-(2H-1,2,3-triazol-2-yl)benzyl)-2-(2-isopropylphenyl)-7,9-dihydro-8H-purin-8-one] | 0.05 to 0.2
CC(C)c1ccccc1-c1ncc2[nH]c(=O)n([C@@H](C)c3ccc(-n4nccn4)cc3)c2n1 [Compound I-141, (S)-9-(1-(4-(2H-1,2,3-triazol-2-yl)phenyl)ethyl)-2-(2-isopropylphenyl)-7,9-dihydro-8H-purin-8-one] | 0.2 to 2
CC(C)c1ccccc1-c1ncc2[nH]c(=O)n([C@H](C)c3ccc(-n4nccn4)cc3)c2n1 [Compound I-142, (R)-9-(1-(4-(2H-1,2,3-triazol-2-yl)phenyl)ethyl)-2-(2-isopropylphenyl)-7,9-dihydro-8H-purin-8-one] | 0.2 to 2
CC(C)c1ccccc1-c1ncc2[nH]c(=O)n(CC3CCN(c4cccnc4)CC3)c2n1 [Compound I-143, 2-(2-isopropylphenyl)-9-((1-(pyridin-3-yl)piperidin-4-yl)methyl)-7,9-dihydro-8H-purin-8-one] | 0.2 to 2
CC(C)c1ccccc1-c1ncc2[nH]c(=O)n(C3CCN(c4cccnc4)CC3)c2n1 [Compound I-144, 2-(2-isopropylphenyl)-9-(1-(pyridin-3-yl)piperidin-4-yl)-7,9-dihydro-8H-purin-8-one] | > 2
CC(C)c1ccccc1-c1ncc2[nH]c(=O)n(Cc3ccc(-n4cccn4)cc3)c2n1 [Compound I-145, 9-(4-(1H-pyrazol-1-yl)benzyl)-2-(2-isopropylphenyl)-7,9-dihydro-8H-purin-8-one] | < 0.05
CC(C)c1ccccc1-c1ncc2[nH]c(=O)n(Cc3ccc(-n4cccn4)nc3)c2n1 [Compound I-146, 9-((6-(1H-pyrazol-1-yl)pyridin-3-yl)methyl)-2-(2-isopropylphenyl)-7,9-dihydro-8H-purin-8-one] | 0.05 to 0.2
CC(C)c1ccccc1-c1ncc2[nH]c(=O)n([C@@H](C)c3ccc(-n4ccnn4)cc3)c2n1 [Compound I-147, (S)-9-(1-(4-(1H-1,2,3-triazol-1-yl)phenyl)ethyl)-2-(2-isopropylphenyl)-7,9-dihydro-8H-purin-8-one] | 0.05 to 0.2
CC(C)c1ccccc1-c1ncc2[nH]c(=O)n([C@H](C)c3ccc(-n4ccnn4)cc3)c2n1 [Compound I-148, (R)-9-(1-(4-(1H-1,2,3-triazol-1-yl)phenyl)ethyl)-2-(2-isopropylphenyl)-7,9-dihydro-8H-purin-8-one] | 0.2 to 2
CC(C)c1ccccc1-c1ncc2[nH]c(=O)n(Cc3ccc(-n4ccc(C(F)(F)F)n4)cc3)c2n1 [Compound I-149, 2-(2-isopropylphenyl)-9-(4-(3-(trifluoromethyl)-1H-pyrazol-1-yl)benzyl)-7,9-dihydro-8H-purin-8-one] | 0.05 to 0.2
Cc1nnc(-c2ccc(Cn3c(=O)[nH]c4cnc(-c5ccccc5C(C)C)nc43)cc2)o1 [Compound I-150, 2-(2-isopropylphenyl)-9-(4-(5-methyl-1,3,4-oxadiazol-2-yl)benzyl)-7,9-dihydro-8H-purin-8-one] | < 0.05
CC(C)c1ccccc1-c1ncc2[nH]c(=O)n(Cc3ccc(C#N)cc3)c2n1 [Compound I-151, 4-((2-(2-isopropylphenyl)-8-oxo-7,8-dihydro-9H-purin-9-yl)methyl)benzonitrile] | 0.2 to 2
Cc1nc(-c2ccc(Cn3c(=O)[nH]c4cnc(-c5ccccc5C(C)C)nc43)cc2)no1 [Compound I-152, 2-(2-isopropylphenyl)-9-(4-(5-methyl-1,2,4-oxadiazol-3-yl)benzyl)-7,9-dihydro-8H-purin-8-one] | < 0.05

SMILES | IC50 [µM]
CC(C)c1ccccc1-c1ncc2[nH]c(=O)n(Cc3ccc(CN4CCOCC4)cc3)c2n1 [Compound I-153, 2-(2-isopropylphenyl)-9-(4-(morpholinomethyl)benzyl)-7,9-dihydro-8H-purin-8-one] | > 2
CC(C)c1ccccc1-c1ncc2[nH]c(=O)n(Cc3ccc(-n4cncn4)cc3)c2n1 [Compound I-154, 9-(4-(1H-1,2,4-triazol-1-yl)benzyl)-2-(2-isopropylphenyl)-7,9-dihydro-8H-purin-8-one] | > 2
CC(C)c1ccccc1-c1ncc2[nH]c(=O)n([C@H](C)c3ccccc3)c2n1 [Compound I-155, (R)-2-(2-isopropylphenyl)-9-(1-phenylethyl)-7,9-dihydro-8H-purin-8-one] | 0.05 to 0.2
CC(C)c1ccccc1-c1ncc2[nH]c(=O)n([C@@H](C)c3ccccc3)c2n1 [Compound I-156, (S)-2-(2-isopropylphenyl)-9-(1-phenylethyl)-7,9-dihydro-8H-purin-8-one] | > 2
CC(C)c1ccccc1-c1ncc2[nH]c(=O)n([C@@H](C)c3ccc(-n4cccn4)cc3)c2n1 [Compound I-157, (S)-9-(1-(4-(1H-pyrazol-1-yl)phenyl)ethyl)-2-(2-isopropylphenyl)-7,9-dihydro-8H-purin-8-one] | 0.05 to 0.2
CC(C)c1ccccc1-c1ncc2[nH]c(=O)n([C@@H]3CCOc4ccccc43)c2n1 [Compound I-159, (R)-9-(chroman-4-yl)-2-(2-isopropylphenyl)-7,9-dihydro-8H-purin-8-one] | 0.2 to 2
CC(C)c1ccccc1-c1ncc2[nH]c(=O)n(Cc3ccc(-c4nccn4C)cc3)c2n1 [Compound I-160, 2-(2-isopropylphenyl)-9-(4-(1-methyl-1H-imidazol-2-yl)benzyl)-7,9-dihydro-8H-purin-8-one] | < 0.05
CC(C)c1ccccc1-c1ncc2[nH]c(=O)n(CCC3CCN(c4cccnc4)CC3)c2n1 [Compound I-161, 2-(2-isopropylphenyl)-9-(2-(1-(pyridin-3-yl)piperidin-4-yl)ethyl)-7,9-dihydro-8H-purin-8-one] | 0.2 to 2
CC(C)c1ccccc1-c1ncc2[nH]c(=O)n(Cc3ccc(-n4cccn4)cc3Cl)c2n1 [Compound I-162, 9-(2-chloro-4-(1H-pyrazol-1-yl)benzyl)-2-(2-isopropylphenyl)-7,9-dihydro-8H-purin-8-one] | 0.05 to 0.2
CC(C)c1ccccc1-c1ncc2[nH]c(=O)n([C@@H]3CC[C@H]3c3ccc(-n4cccn4)cc3)c2n1 [Compound I-163, 9-((1R,2S)-2-(4-(1H-pyrazol-1-yl)phenyl)cyclobutyl)-2-(2-isopropylphenyl)-7,9-dihydro-8H-purin-8-one] | < 0.05
CC(C)c1ccccc1-c1ncc2[nH]c(=O)n([C@H]3CC[C@@H]3c3ccc(-n4cccn4)cc3)c2n1 [Compound I-164, 9-((1S,2R)-2-(4-(1H-pyrazol-1-yl)phenyl)cyclobutyl)-2-(2-isopropylphenyl)-7,9-dihydro-8H-purin-8-one] | 0.2 to 2
CC(C)c1c(F)cccc1-c1ncc2[nH]c(=O)n(Cc3ccc(-n4ccnn4)cc3)c2n1 [Compound I-165, 9-(4-(1H-1,2,3-triazol-1-yl)benzyl)-2-(3-fluoro-2-isopropylphenyl)-7,9-dihydro-8H-purin-8-one] | 0.05 to 0.2
CC(C)c1c(F)cccc1-c1ncc2[nH]c(=O)n(Cc3ccc(-n4nccn4)cc3)c2n1 [Compound I-166, 9-(4-(2H-1,2,3-triazol-2-yl)benzyl)-2-(3-fluoro-2-isopropylphenyl)-7,9-dihydro-8H-purin-8-one] | 0.05 to 0.2
CC(C)c1ccccc1-c1ncc2[nH]c(=O)n(Cc3ccc(-n4cccn4)cc3F)c2n1 [Compound I-167, 9-(2-fluoro-4-(1H-pyrazol-1-yl)benzyl)-2-(2-isopropylphenyl)-7,9-dihydro-8H-purin-8-one] | 0.2 to 2
Cc1nnn(-c2ccc(Cn3c(=O)[nH]c4cnc(-c5ccccc5C(C)C)nc43)cc2)n1 [Compound I-168, 2-(2-isopropylphenyl)-9-(4-(5-methyl-2H-tetrazol-2-yl)benzyl)-7,9-dihydro-8H-purin-8-one] | 0.05 to 0.2
CC(C)c1ccccc1-c1ncc2[nH]c(=O)n(Cc3ccc(-c4ncco4)cc3)c2n1 [Compound I-169, 2-(2-isopropylphenyl)-9-(4-(oxazol-2-yl)benzyl)-7,9-dihydro-8H-purin-8-one] | < 0.05
CC(C)c1c(F)cccc1-c1ncc2[nH]c(=O)n(Cc3ccc(-n4cccn4)cc3)c2n1 [Compound I-170, 9-(4-(1H-pyrazol-1-yl)benzyl)-2-(3-fluoro-2-isopropylphenyl)-7,9-dihydro-8H-purin-8-one] | < 0.05
